This is an account of results in publication PMC4589331, “Interactions of L-3,5,3'-Triiodothyronine, Allopregnanolone, and Ivermectin with the GABAA Receptor: Evidence for Overlapping Intersubunit Binding Modes” (PLoS ONE, 2015).

Assay [1] has as its target T1, α1β1γ2 GABAA receptor (Homo sapiens, UniProt P14867+P18505+P18507).
T1 construct: GeneCopoeia (γ2 cDNA); host or cells: Xenopus laevis oocytes injected with cRNAs, ratio α1:β1:γ2 1:1:2
Put plainly: Two-electrode voltage-clamp recording of GABAA receptors expressed in Xenopus oocytes. The class given is cell-based. How it is done: The cDNAs encoding human GABAA receptor α1 and β1 subunits were acquired from American Type Culture Collection (ATCC, Manassas, Virginia), while those encoding γ2 subunits were acquired from GeneCopoeia (Rockville, Maryland). Restriction enzymes for the cDNAs came from New England Biolabs (Ipswich, MA).
HindIII-digested and XholI-digested DNA templates encoding human α1, β1, or γ2 GABAA receptor subunits (4 μg) were transcribed through the mMESSAGE mMACHINE T7 kit from Ambion (Austin, TX). […] The solution was then treated with RNase-free DNase I and precipitated with lithium chloride. The cRNAs were dissolved in double-distilled diethyl-pyrocarbonate (DEPC) treated water to a final concentration of ~ 1–2 μg/ μL. Subunit combinations were aliquoted for the specific receptor type with total concentration remaining ~ 1–2 μg/ μL.
(§1) X. laevis were anesthetized by placing them in solution of 1 g tricaine methanesulfonate (MS222) per 500 mL in de-chlorinated water. A small incision in the abdomen was made 1 cm away from and parallel to the midline and lobes of ovary were removed. The lobes were gently agitated at room temperature with collagenase (2 mg/mL) in calcium free OR-2 (82.5 mM NaCl, 2.5 mM KCl, 1 mM MgCl2, 5 mM HEPES, pH adjusted to 7.6 with NaOH) until the ovarian epithelium and the follicular cell layer were removed (~2 hrs). Oocytes were checked for proper size and shape, color, and for the presence of distinct animal and vegetal poles. Viable oocytes were placed in ND96 solution (96 mM NaCl, 2mM KCl, 1 mM MgCl2, 1 mM CaCl2, 5 mM HEPES, pH adjusted to 7.6 with NaOH) and the oocytes were injected with 46 nL cRNAs (1–2 μg/μL) expressing the α1β1γ2 construct using a digital microdispenser (Drummond ‘Nanoject II’), with the ratio α1: β1: γ2 1:1:2. […] Injected oocytes were incubated at 18°C in a sterile solution containing Leibovitz L-15 Medium supplemented with 10 mM HEPES, 50 mg/L gentamicin and 50 mg/L tetracycline at pH 7.4.
After 24 h following injections, oocytes were placed in a recording chamber perfused continuously with ND96. All drugs were perfused into the chamber through a gravity flow system (~5 mL/min). Oocytes were impaled with two 3 M KCl-filled glass microelectrodes (~ 1–2 MΩ). Oocytes were then voltage-clamped at -60 mV with a Model OC-725C Oocyte Clamp (Warner Instruments, Hamden, CT). Currents were recorded using the iWorx LabScribe v1.959 software. The peak amplitudes of the responses were used for data analysis.
Oocytes were perfused with ND96 between trials until current returned to baseline (approximately 10–15 minutes).
Graph Pad Prism, version 5.00 (La Jolla, CA), was used for all statistical analysis of two-electrode voltage-clamp data and for fitting the curves by nonlinear regression for determinations of EC50/IC50, min and max response values, and Hill coefficients. To determine the type of competition, a Schild plot analysis was applied to the competitive binding data, utilizing a linear regression fit.
On the technique in general: Two-electrode voltage clamp holds a large cell at a set potential and records current.

The test system of assay [2] is uninjected oocytes. Put plainly: Two-electrode voltage-clamp recording of uninjected oocytes. In kind it is cell-based, Xenopus laevis. Particulars: data not shown. As for the experimental part:
as §1
After 24 h following injections, oocytes were placed in a recording chamber perfused continuously with ND96. All drugs were perfused into the chamber through a gravity flow system (~5 mL/min). […] Currents were recorded using the iWorx LabScribe v1.959 software. […]

In general, EC50 refers to the concentration needed to bring the measured effect to its halfway point.

T1 sequence (P14867 28-456): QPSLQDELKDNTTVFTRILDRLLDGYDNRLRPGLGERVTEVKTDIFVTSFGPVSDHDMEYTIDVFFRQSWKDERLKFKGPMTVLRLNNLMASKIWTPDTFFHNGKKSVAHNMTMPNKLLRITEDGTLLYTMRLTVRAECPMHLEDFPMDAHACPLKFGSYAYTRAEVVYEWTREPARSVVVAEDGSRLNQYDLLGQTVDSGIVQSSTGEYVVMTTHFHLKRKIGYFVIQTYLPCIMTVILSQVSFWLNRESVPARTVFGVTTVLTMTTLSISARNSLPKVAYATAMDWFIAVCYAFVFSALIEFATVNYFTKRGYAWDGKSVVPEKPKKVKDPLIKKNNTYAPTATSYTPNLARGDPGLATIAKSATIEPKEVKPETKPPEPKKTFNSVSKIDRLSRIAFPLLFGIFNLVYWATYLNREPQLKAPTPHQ
T1 sequence (P18505 26-474): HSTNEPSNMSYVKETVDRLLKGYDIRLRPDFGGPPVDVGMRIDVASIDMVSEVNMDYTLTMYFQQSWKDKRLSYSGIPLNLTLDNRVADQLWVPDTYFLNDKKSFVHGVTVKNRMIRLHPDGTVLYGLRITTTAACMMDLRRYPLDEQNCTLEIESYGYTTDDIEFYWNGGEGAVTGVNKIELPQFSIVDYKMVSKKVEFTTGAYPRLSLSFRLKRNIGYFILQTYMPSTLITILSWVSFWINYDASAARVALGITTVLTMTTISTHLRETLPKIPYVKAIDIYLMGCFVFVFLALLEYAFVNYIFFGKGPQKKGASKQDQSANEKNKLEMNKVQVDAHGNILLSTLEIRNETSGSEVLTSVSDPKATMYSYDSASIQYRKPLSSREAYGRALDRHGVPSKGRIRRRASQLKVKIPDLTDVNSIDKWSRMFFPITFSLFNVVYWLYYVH
T1 sequence (P18507 40-475): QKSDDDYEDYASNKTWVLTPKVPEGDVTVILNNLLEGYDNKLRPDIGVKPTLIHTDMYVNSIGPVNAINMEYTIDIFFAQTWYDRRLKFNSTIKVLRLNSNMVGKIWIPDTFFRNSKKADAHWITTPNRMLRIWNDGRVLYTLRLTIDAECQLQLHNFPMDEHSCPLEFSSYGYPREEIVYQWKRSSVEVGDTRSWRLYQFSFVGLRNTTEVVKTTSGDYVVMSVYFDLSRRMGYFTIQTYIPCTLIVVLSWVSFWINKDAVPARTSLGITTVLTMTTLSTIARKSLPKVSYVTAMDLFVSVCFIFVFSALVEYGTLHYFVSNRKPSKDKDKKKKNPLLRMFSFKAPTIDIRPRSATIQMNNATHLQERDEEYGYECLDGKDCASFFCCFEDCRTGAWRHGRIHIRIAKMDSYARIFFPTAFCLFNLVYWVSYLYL

`CC(=O)[C@H]1CC[C@H]2[C@@H]3CC[C@H]4C[C@H](O)CC[C@]4(C)[C@H]3CC[C@]12C` [ALLOP, 3α-hydroxy-5α-pregnan-20-one]: the EC50 in assay [1] turned out to be 0.9 ± 0.1 µM.

For the molecule `CCC(C)C1OC2(CCC1C)CC1CC(CC=C(C)C(OC3CC(OC)C(OC4CC(OC)C(O)C(C)O4)C(C)O3)C(C)C=CC=C3COC4C(O)C(C)=CC(C(=O)O1)C34O)O2` (stereo not drawn) [IVM, ivermectin], the EC50 in assay [1] amounted to 7.1 ± 0.8 µM. In assay [1] (absence of GABA), the “Hill coefficient of activation by IVM” value was 1.9 ± 0.4 and the “concentration of apparent maximal effect of IVM” value lay in the range of 20 to 50 µM. Besides, the “effect of IVM on uninjected oocytes” value in assay [2] is on record as “unaffected”.

Take `CN1C(=O)CN=C(c2ccccc2)c2cc(Cl)ccc21` [diazepam]: the “effect on GABA response (check of γ subunit incorporation)” value in assay [1] (oocytes injected with α1:β1:γ2 1:1:2) is “potentiation”.
